Measured values from patent US5427766A, “Radiolabeled steroids for use in radiochemical-guided surgery” (priority 1993, dated 1995).

Experiments:
[1] = In vivo localization (biodistribution) in athymic female nude mice bearing intraperitoneal MCF-7 tumors; set-up: species or system athymic female NCR-Nu Mice; details: mouse, in vivo, ip; for tissue uptake: 10-12 hours
Description: (§1) In vivo localization of 11β-ethyl-17α-(Z)-[^125 I](iodovinyl)estra-3,17β-diol (5) and a control compound 16α-[^125 I]iodovinyl-3,17β-estradiol (commercially available from DuPont New England Nuclear, MA) was determined in athymic female NCR-Nu Mice (purchased from Simonsen Laboratories, Gilroy, Calif.) bearing subcutaneous MCF-7(ER+) breast tumor xenografts. Prior to injection of the compounds, the mice were each implanted with fragments of MCF-7 breast tumor (approximately 2 cubic millimeters) in the subcutis of the left flank. At approximately the same time, a 1.7 mg estradiol pellet (Innovative Research of America, Toledo, Ohio) was implanted in the scapular region. The tumors were allowed to grow until they reached between 50 and 200 mg by visual inspection (approximately four to five weeks) prior to injection of the test compounds. One day prior to injection of the test compounds, the estradiol pellet was removed.
(§2) The mice were each injected via tail vein with between 3 (1.1×10^5 Bq) and 6 μCi ([…]) ^125 I in approximately 50 μL of phosphate buffered saline. The mice were sacrificed at various time intervals. After exsanguination, the selected organ/tissue were excised, weighed and radioactivity measured in a gamma counter. The counts per minute (cpm) of 125I in each tissue was determined and expressed as cpm per gram of tissue per injected dose multiplied by 100 (percent injected dose/gram).
The procedure of Example 3 was followed except each mouse was inoculated intraperitoneally with MCF-7 breast carcinoma cell line (7.5×10^6 cell/50 μL) rather than implanted subcutaneously with MCF-7 breast tumor. One day prior to this procedure, a 1.7 mg estradiol pellet was implanted subcutaneously in the scapular region. The tumor cells were allowed to form solid tumor nodules for 4 to 6 weeks prior to injection of the test compounds.

[2] = In vivo localization (biodistribution) in athymic female nude mice bearing subcutaneous MCF-7 tumor xenografts; set-up: species or system athymic female NCR-Nu Mice; details: mouse, sc, tail vein, subcutaneous MCF-7, mean, n = 5; for tissue uptake: 10-12 hours
Description: as §1, §2

[3] = Percent Injected Dose/Gram, kidney
[4] = Percent Injected Dose/Gram, liver
[5] = Percent Injected Dose/Gram, muscle
[6] = Percent Injected Dose/Gram, spleen
[7] = Percent Injected Dose/Gram, tumor
[8] = mcf-7 tumor, Tumor, read-out: Percent Injected Dose/Gram, tumor
[9] = Blood, read-out: Percent Injected Dose/Gram, blood
[10] = Fat, read-out: Percent Injected Dose/Gram, fat
[11] = Kidney, read-out: Percent Injected Dose/Gram, kidney
[12] = Liver, read-out: Percent Injected Dose/Gram, liver
[13] = Muscle, read-out: Percent Injected Dose/Gram, muscle
[14] = Spleen, read-out: Percent Injected Dose/Gram, spleen
[15] = uterus, Uteri, read-out: Percent Injected Dose/Gram, uteri

## CC[C@H]1C[C@@]2(C)[C@@H](CC[C@@]2(O)/C=C\[125I])[C@@H]2CCc3cc(O)ccc3[C@@H]12 [Compound 5, 11β-ethyl-17α-(Z)-[^125 I](iodovinyl)estra-3,17β-diol]
[1]; Blood, tail vein, intraperitoneal MCF-7, mean, n = 5, read-out: Percent Injected Dose/Gram, blood
  tissue uptake: 0.61 %ID/g
[1]; Blood, 2 hours, tail vein, intraperitoneal MCF-7, mean, n = 5, read-out: Percent Injected Dose/Gram, blood
  tissue uptake at 2 h: 2.07 %ID/g
[1]; Blood, 6 hours, tail vein, intraperitoneal MCF-7, mean, n = 5, read-out: Percent Injected Dose/Gram, blood
  tissue uptake at 6 h: 0.88 %ID/g
[1]; Fat, tail vein, intraperitoneal MCF-7, mean, n = 5, read-out: Percent Injected Dose/Gram, fat
  tissue uptake: 0.67 %ID/g
[1]; Fat, 2 hours, tail vein, intraperitoneal MCF-7, mean, n = 5, read-out: Percent Injected Dose/Gram, fat
  tissue uptake at 2 h: 3.1 %ID/g
[1]; Fat, 6 hours, tail vein, intraperitoneal MCF-7, mean, n = 5, read-out: Percent Injected Dose/Gram, fat
  tissue uptake at 6 h: 1.64 %ID/g
[1]; Fat, 24 hours, tail vein, intraperitoneal MCF-7, mean, n = 5, read-out: Percent Injected Dose/Gram, fat
  tissue uptake at 24 h: 0.12 %ID/g
[1]; [3]
  tissue uptake at 2 h: 2.08 %ID/g
  tissue uptake at 6 h: 0.78 %ID/g
  tissue uptake at 24 h: 0.13 %ID/g
  tissue uptake at 48 h: 0.03 %ID/g
[1]; [4]
  tissue uptake at 2 h: 8.26 %ID/g
  tissue uptake at 6 h: 4.08 %ID/g
  tissue uptake at 24 h: 1.14 %ID/g
  tissue uptake at 48 h: 0.44 %ID/g
[1]; [5]
  tissue uptake at 2 h: 0.69 %ID/g
  tissue uptake at 6 h: 0.31 %ID/g
[1]; [6]
  tissue uptake at 2 h: 1.72 %ID/g
  tissue uptake at 6 h: 0.86 %ID/g
  tissue uptake at 24 h: 0.16 %ID/g
  tissue uptake at 48 h: 0.06 %ID/g
[1]; [7]
  tissue uptake at 2 h: 2.33 %ID/g
  tissue uptake at 6 h: 1.6 %ID/g
  tissue uptake at 24 h: 1.07 %ID/g
  tissue uptake at 48 h: 0.76 %ID/g
[1]; Uteri, tail vein, intraperitoneal MCF-7, mean, n = 5, read-out: Percent Injected Dose/Gram, uteri
  tissue uptake: 3.95 %ID/g
[1]; Uteri, 2 hours, tail vein, intraperitoneal MCF-7, mean, n = 5, read-out: Percent Injected Dose/Gram, uteri
  tissue uptake at 2 h: 6.47 %ID/g
[1]; Uteri, 6 hours, tail vein, intraperitoneal MCF-7, mean, n = 5, read-out: Percent Injected Dose/Gram, uteri
  tissue uptake at 6 h: 4.43 %ID/g
[1]; Uteri, 24 hours, tail vein, intraperitoneal MCF-7, mean, n = 5, read-out: Percent Injected Dose/Gram, uteri
  tissue uptake at 24 h: 3.35 %ID/g
[1]; Uteri, 48 hours, tail vein, intraperitoneal MCF-7, mean, n = 5, read-out: Percent Injected Dose/Gram, uteri
  tissue uptake at 48 h: 1.62 %ID/g
[2]; [8]
  tissue uptake: 0.83 %ID/g
  tissue uptake at 2 h: 1.15 %ID/g
  tissue uptake at 6 h: 1.1 %ID/g
  tissue uptake at 24 h: 0.55 %ID/g
  tissue uptake at 48 h: 0.36 %ID/g
[2]; [9]
  tissue uptake: 0.37 %ID/g
  tissue uptake at 2 h: 1.11 %ID/g
  tissue uptake at 6 h: 1.06 %ID/g
  tissue uptake at 24 h: 0.09 %ID/g
  tissue uptake at 48 h: 0.03 %ID/g
[2]; [10]
  tissue uptake: 0.82 %ID/g
  tissue uptake at 2 h: 2.18 %ID/g
  tissue uptake at 6 h: 1.72 %ID/g
  tissue uptake at 24 h: 0.14 %ID/g
[2]; [11]
  tissue uptake: 0.45 %ID/g
  tissue uptake at 2 h: 1.24 %ID/g
  tissue uptake at 6 h: 1.01 %ID/g
  tissue uptake at 24 h: 0.1 %ID/g
  tissue uptake at 48 h: 0.02 %ID/g
[2]; [12]
  tissue uptake: 2.39 %ID/g
  tissue uptake at 2 h: 5.61 %ID/g
  tissue uptake at 6 h: 5.34 %ID/g
  tissue uptake at 24 h: 0.87 %ID/g
  tissue uptake at 48 h: 0.36 %ID/g
[2]; [13]
  tissue uptake: 0.09 %ID/g
  tissue uptake at 2 h: 0.56 %ID/g
  tissue uptake at 6 h: 0.33 %ID/g
[2]; [14]
  tissue uptake: 0.54 %ID/g
  tissue uptake at 2 h: 1.26 %ID/g
  tissue uptake at 6 h: 0.97 %ID/g
  tissue uptake at 24 h: 0.18 %ID/g
  tissue uptake at 48 h: 0.06 %ID/g
[2]; [15]
  tissue uptake: 3.66 %ID/g
  tissue uptake at 2 h: 4.66 %ID/g
  tissue uptake at 6 h: 4.4 %ID/g
  tissue uptake at 24 h: 1.95 %ID/g
  tissue uptake at 48 h: 1.26 %ID/g
